Literature values as cited in US5900412A, “Percutaneous/transdermal delivery of ASA and antithrombotic therapies based thereon” (Luitpold Pharma GmbH, priority 1996, dated 1999).

Experiments:
[1] = test system: cyclooxygenase

CC(=O)Oc1ccccc1C(=O)O [ASA, acetylsalicylic acid]
acetylation and inactivation of cyclooxygenase (in words) [1]: irreversible acetylation, and consequently prolonged inactivation, of cyclooxygenase | duration of inhibition of thromboxane synthesis (life of the thrombocytes) ([1]; blood platelets): 1 month | absolute bio-availability of ASA (following peroral administration): 50%-70 | metabolism of ASA to SA (in words) (gastrointestinal fluids, absorption in stomach and intestine, blood plasma): rapidly metabolized to its principal metabolite SA
